In patent publication US10166216B2 (Rigel Pharmaceuticals, Inc., priority 2006, dated 2019):

Biological target: Axl (Homo sapiens (Human), UniProt P30530)
Assay: Phospho-Akt in-cell Western assay (Axl-antibody cross-linking stimulation)
Assay type: cell-based
Conditions: inhibition of Axl activity
Experimental: The working solution: dilute the stock 1:20 with PBS immediately before use. • 10% SDS: working solution: 5% SDS (sodium dodecylsulfate), diluted in PBS Methods: Day 1:
A 96 well TC (tissue culture treated) plate was coated with 10 μg/mL poly-L-Lysine at 37° C. for 30 min, washed twice with PBS, and air-dried for 5 minutes before cells were added. Hela cells were seeded at 10,000 cells/well and the cells were starved in 100 μL starvation medium containing Axl/Fc for 24 hrs.
The cells were pre-treated with test compounds by adding 100 μL of 2× test compound to the starvation medium on the cells. The cells were incubated at 37° C. for 1 hr before stimulation.
The resulting mix was warmed to 37° C. 50 μL of 5× Axl 1st/2nd of antibody cluster was added to the cells and the cells were incubated at 37° C. for 5 min.
After 5 minutes stimulation, the plate was flicked to remove medium and the plate was tapped onto paper towels. Formaldehyde (4.0% in PBS, 100 μL) was added to fix the cells and the cells were incubated at ambient temperature for 20 min without shaking.
The cells were washed with a plate washer buffer to remove the formaldehyde solution. The plate was flicked to removed excess wash buffer and tapped onto paper towels. Quenching buffer (100 μL) was added to each well and the cells were incubated at ambient temperature for 20 minutes without shaking.
The cells were washed with a plate washer buffer to remove the quenching buffer. Blocking buffer (100 μL) was added and the cells were incubated at ambient temperature for at least an hour with gentle shaking.
The cells were washed with a plate washer buffer and diluted primary antibody (50 μL) was added to each well (blocking buffer was added to the negative control wells instead). The plates were incubated overnight at 4° C. with gentle shaking.
The wash buffer was removed, diluted secondary antibody (100 μL) was added, and the cells were incubated at ambient temperature for 1 hour with gentle shaking. During the incubation, the chemiluminescent reagent was brought to ambient temperature.
The secondary antibody was removed by washing the cells 1× with wash buffer, 1× with PBS by plate washer. The PBS was removed from the plate and the chemiluminescent reagent (80 μL: 40 μL A and 40 μL B) was added to each well at ambient temperature.
The resulting chemiluminescence was read with a Luminomitor within 10 minutes to minimize changes in signal intensity. […] The plate was tapped onto paper towels to remove excess liquid from wells and air-dried at ambient temperature for 5 minutes.
Crystal Violet working solution (60 μL) was added to each well and the cells were incubated at ambient temperature for 30 min. The crystal violet solution was removed, and the wells were rinsed with PBS, then washed 3× with PBS (200 μL) for 5 minutes each.
5% SDS solution (70 μL) was added to each well and the cells were incubated on a shaker for 30 min at ambient temperature.
This relative cell number was then used to normalize each luminescence reading. […]

[1] = phospho-Akt in-cell Western assay
[2] = Hela cells, phospho-Akt readout, Table 1, formula (Ia1)
[3] = Hela cells, phospho-Akt readout, Table 5, formula (Ia3)

Axl, sequence (P30530 26-894): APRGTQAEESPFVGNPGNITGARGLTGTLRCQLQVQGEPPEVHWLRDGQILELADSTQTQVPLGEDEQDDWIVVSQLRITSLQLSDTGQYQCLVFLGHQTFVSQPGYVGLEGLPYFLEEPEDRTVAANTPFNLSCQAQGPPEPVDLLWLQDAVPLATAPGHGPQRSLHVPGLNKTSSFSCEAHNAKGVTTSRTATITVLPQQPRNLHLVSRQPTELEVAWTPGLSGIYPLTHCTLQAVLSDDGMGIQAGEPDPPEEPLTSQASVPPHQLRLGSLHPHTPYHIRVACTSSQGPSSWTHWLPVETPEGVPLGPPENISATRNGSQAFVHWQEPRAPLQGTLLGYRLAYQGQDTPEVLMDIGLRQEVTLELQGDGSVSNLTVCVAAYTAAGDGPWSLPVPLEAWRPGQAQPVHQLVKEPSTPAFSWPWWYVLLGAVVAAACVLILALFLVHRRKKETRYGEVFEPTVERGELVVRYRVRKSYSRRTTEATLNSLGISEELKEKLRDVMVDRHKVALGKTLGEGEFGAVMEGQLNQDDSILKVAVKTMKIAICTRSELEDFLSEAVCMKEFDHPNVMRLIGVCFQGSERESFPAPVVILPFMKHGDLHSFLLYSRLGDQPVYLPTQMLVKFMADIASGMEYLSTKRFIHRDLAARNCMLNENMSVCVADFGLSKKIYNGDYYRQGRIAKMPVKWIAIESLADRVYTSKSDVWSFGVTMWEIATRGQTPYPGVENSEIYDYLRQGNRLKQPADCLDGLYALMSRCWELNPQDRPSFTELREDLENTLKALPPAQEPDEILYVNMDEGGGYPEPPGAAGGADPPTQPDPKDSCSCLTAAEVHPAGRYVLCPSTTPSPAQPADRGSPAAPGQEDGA

Compound | IC50 [1] [nM] | other results
Nc1nc(Nc2ccc(OCCN3CCCC3)cc2)nn1-c1cc(C(F)(F)F)ccn1 [Compound 26, N^3-(4-(2-(pyrrolidin-1-yl)ethoxy)phenyl)-1-(4-(trifluoromethyl)pyridin-2-yl)-1H-1,2,4-triazole-3,5-diamine] |  | IC50 [2]: < 1000 nM
Nc1nc(Nc2ccc(OCCN3CCCC3)cc2)nn1-c1nccc2[nH]c(=O)ccc12 [Compound 78, 5-(5-amino-3-(4-(2-(pyrrolidin-1-yl)ethoxy)phenylamino)-1H-1,2,4-triazol-1-yl)-1,6-naphthyridin-2(1H)-one] |  | IC50 [2]: < 1000 nM
COc1cc2ncnc(-n3nc(Nc4ccc(N5CC[C@H](N(C)C)C5)cc4)nc3N)c2cc1OC [Compound 171, 1-(6,7-dimethoxyquinazolin-4-yl)-N^3-(4-((S)-3-(dimethylamino)pyrrolidin-1-yl)phenyl)-1H-1,2,4-triazole-3,5-diamine] |  | IC50 [3]: < 1000 nM
CN1CCCC(Oc2ccc(Nc3nc(N)n(-c4nccc5ccccc45)n3)cc2)C1 (centres unmarked) [Compound 155, 1-(isoquinolin-1-yl)-N^3-(4-(1-methylpiperidin-3-yloxy)phenyl)-1H-1,2,4-triazole-3,5-diamine] |  | IC50 [3]: < 1000 nM
COc1cc2ncnc(-n3nc(Nc4ccc(N5CCOCC5)c(F)c4)nc3N)c2cc1OC [Compound 162, 1-(6,7-dimethoxyquinazolin-4-yl)-N^3-(3-fluoro-4-morpholinophenyl)-1H-1,2,4-triazole-3,5-diamine] |  | IC50 [3]: < 1000 nM
COc1cc2c(-n3nc(Nc4ccc(N5CCN(C)CC5)c(F)c4)nc3N)ncnc2cc1O [Compound 117, 4-(5-amino-3-(3-fluoro-4-(4-methylpiperazin-1-yl)phenylamino)-1H-1,2,4-triazol-1-yl)-6-methoxyquinazolin-7-ol] | < 1000 | 
CC1CCCN1CCOc1ccc(Nc2nc(N)n(-c3nc4ccccc4[nH]3)n2)cc1 (centres unmarked) [Compound 24, 1-(1H-benzo[d]imidazol-2-yl)-N^3-(4-(2-(2-methylpyrrolidin-1-yl)ethoxy)phenyl)-1H-1,2,4-triazole-3,5-diamine] |  | IC50 [2]: > 20000 nM
CCOC(=O)c1ccc(Nc2nc(N)n(-c3ccnc(Cl)c3)n2)cc1 [Compound 143, ethyl 4-(5-amino-1-(2-chloropyridin-4-yl)-1H-1,2,4-triazol-3-ylamino)benzoate] |  | IC50 [3]: > 20000 nM
COc1cc2ncnc(-n3nc(Nc4ccc(N5CCN(C)CC5)c(C(N)=O)c4)nc3N)c2cc1OC [Compound 121, 5-(5-amino-1-(6,7-dimethoxyquinazolin-4-yl)-1H-1,2,4-triazol-3-ylamino)-2-(4-methylpiperazin-1-yl)benzamide] | 1000 to 10000 | 
Nc1nc(Nc2ccc(OCCN3CCCCC3)cc2)nn1-c1cccc(Cl)n1 [Compound 19, 1-(6-chloropyridin-2-yl)-N^3-(4-(2-(piperidin-1-yl)ethoxy)phenyl)-1H-1,2,4-triazole-3,5-diamine] |  | IC50 [2]: < 1000 nM
Nc1nc(Nc2ccc(OCCN3CCCCC3)cc2)nn1-c1cccc(N2CCOCC2)n1 [Compound 20, 1-(6-morpholinopyridin-2-yl)-N^3-(4-(2-(piperidin-1-yl)ethoxy)phenyl)-1H-1,2,4-triazole-3,5-diamine] |  | IC50 [2]: 10000 to 20000 nM
Cc1csc2c(-n3nc(Nc4ccc(C(=O)N5CCN(C6CCCC6)CC5)cc4)nc3N)ncnc12 [Compound 207, 1-(7-methylthieno[3,2-d]pyrimidin-4-yl)-N^3-(4-(4-(cyclopentyl)piperazin-1-ylcarbonyl)phenyl)-1H-1,2,4-triazole-3,5-diamine] |  | IC50 [3]: < 1000 nM
COc1cc2ncnc(-n3nc(N)nc3Nc3ccc(N4CCN(C5CC6CCC5C6)CC4)cc3)c2cc1OC (centres unmarked) [Compound 100, N^5-(4-(4-(bicyclo[2.2.1]heptan-2-yl)piperazin-1-yl)phenyl)-1-(6,7-dimethoxyquinazolin-4-yl)-1H-1,2,4-triazole-3,5-diamine] |  | IC50 (Hela cells, phospho-Akt readout, Table 4, formula (Ib2)): < 1000 nM
Nc1nc(Nc2ccc(OCCN3CCCC3)cc2)nn1-c1ccc(Cl)cn1 [Compound 17, 1-(5-chloropyridin-2-yl)-N^3-(4-(2-(pyrrolidin-1-yl)ethoxy)phenyl)-1H-1,2,4-triazole-3,5-diamine] |  | IC50 [2]: 1000 to 10000 nM

More lines, main results first:

IC50 [1] [nM] | Compound | other results
> 20000 | Nc1nc(Nc2ccc(N3CCN(C4CC5CCC4C5)CC3)cc2)nn1-c1ncnc2scc(-c3cccs3)c12 (centres unmarked) [Compound 185, 1-(5-(thiophen-2-yl)thieno[2,3-d]pyrimidin-4-yl)-N^3-(4-(4-(bicyclo[2.2.1]heptan-2-yl)-piperazin-1-yl)phenyl)-1H-1,2,4-triazole-3,5-diamine] | 
< 1000 | Cc1cc(Nc2nc(N)n(-c3ncnc4c(C)csc34)n2)ccc1N1CCN([C@H]2C[C@@H]3CC[C@H]2C3)[C@@H](C)C1 [Compound 253, 1-(7-methylthieno[3,2-d]pyrimidin-4-yl)-N^3-(3-methyl-4-(3-(S)-methyl-4-((1S,2S,4R)-bicyclo[2.2.1]heptan-2-yl)piperazin-1-yl)phenyl)-1H-1,2,4-triazole-3,5-diamine] | 
< 1000 | Nc1nc(Nc2ccc(N3CCN(C4CC5CCC4C5)CC3)c(F)c2)nn1-c1ncnc2ccsc12 (centres unmarked) [Compound 195, 1-(thieno[3,2-d]pyrimdin-4-yl)-N^3-(3-fluoro-4-(4-(bicyclo[2.2.1]heptan-2-yl)-piperazin-1-yl)phenyl)-1H-1,2,4-triazole-3,5-diamine] | 
< 1000 | COc1cc2c(-n3nc(Nc4ccc(N5CCN(C6CC7CCC6C7)CC5)c(F)c4)nc3N)ncnc2cc1O (centres unmarked) [Compound 106, 4-(5-amino-3-(4-(4-(bicyclo[2.2.1]heptan-2-yl)piperazin-1-yl)-3-fluorophenylamino)-1H-1,2,4-triazol-1-yl)-6-methoxyquinazolin-7-ol] | 
< 1000 | Nc1nc(Nc2ccc(N3CCN(C4CC5CCC4C5)CC3)cc2)nn1-c1ncnc2ccsc12 (centres unmarked) [Compound 128, N^3-(4-(4-(bicyclo[2.2.1]heptan-2-yl)piperazin-1-yl)phenyl)-1-(thieno[3,2-d]pyrimidin-4-yl)-1H-1,2,4-triazole-3,5-diamine] | 
< 1000 | Cc1csc2c(-n3nc(Nc4ccc(N5CCN([C@H]6C[C@@H]7CC[C@H]6C7)CC5)cc4)nc3N)ncnc12 [Compound 188, 1-(7-methylthieno[3,2-d]pyrimidin-4-yl)-N^3-(4-(4-((1S,2S,4R)-bicyclo[2.2.1]heptan-2-yl)-piperazin-1-yl)phenyl)-1H-1,2,4-triazole-3,5-diamine] | 
< 1000 | COc1cc2c(-n3nc(Nc4ccc(N5CCN(C6CCCCCC6)CC5)cc4)nc3N)ncnc2cc1O [Compound 109, 4-(5-amino-3-(4-(4-cycloheptylpiperazin-1-yl)phenylamino)-1H-1,2,4-triazol-1-yl)-6-methoxyquinazolin-7-ol] | 
1000 to 10000 | CC(=O)N1CCN(c2ccc(Nc3nc(N)n(-c4nccc5ccccc45)n3)cc2)CC1 [Compound 88, 1-(4-(4-(5-amino-1-(isoquinolin-1-yl)-1H-1,2,4-triazol-3-ylamino)phenyl)piperazin-1-yl)ethanone] | 
< 1000 | Nc1nc(Nc2ccc(N3CCN([C@H]4C[C@@H]5CC[C@H]4C5)CC3)c(Cl)c2)nn1-c1ncnc2sccc12 [Compound 244, 1-thieno[2,3-d]pyrimidin-4-yl-N^3-(3-chloro-4-(4-((1S,2S,4R)-bicyclo[2.2.1]heptan-2-yl)piperazin-1-yl)phenyl)-1H-1,2,4-triazole-3,5-diamine] | 
< 1000 | Nc1nc(Nc2ccc(N3CCN(C4CCCCC4)CC3)c(F)c2)nn1-c1nccc2ccccc12 [Compound 87, N^3-(4-(4-cyclohexylpiperazin-1-yl)-3-fluroophenyl)-1-(isoquinolin-1-yl)-1H-1,2,4-triazole-3,5-diamine] | 
1000 to 10000 | Cc1csc2ncnc(-n3nc(Nc4ccc(N5CCN([C@H]6C[C@@H]7CC[C@H]6C7)CC5)cc4)nc3N)c12 [Compound 191, 1-(5-methylthieno[2,3-d]pyrimidin-4-yl)-N^3-(4-(4-((1S,2S,4R)-bicyclo[2.2.1]heptan-2-yl)-piperazin-1-yl)phenyl)-1H-1,2,4-triazole-3,5-diamine] | 
< 1000 | Cc1cc(Nc2nc(N)n(-c3ncnc4c(C)csc34)n2)ccc1N1CCN([C@H]2C[C@@H]3CC[C@H]2C3)CC1 [Compound 252, 1-(7-methylthieno[3,2-d]pyrimidin-4-yl)-N^3-(3-methyl-4-(4-((1S,2S,4R)-bicyclo[2.2.1]heptan-2-yl)piperazin-1-yl)phenyl)-1H-1,2,4-triazole-3,5-diamine] | 
